A word on the IC50: it is the concentration that gives 50% inhibition. As usually defined, the EC50 is the midpoint of the concentration-response curve. Read a high EC50 as a need for much substance. Usually Tmax stands for the time at which the peak concentration occurs. As usually defined, the half-life is how long it takes for the measured level to halve. In general, Cmax refers to the peak of the concentration-time curve. Broadly, the GI50 is the concentration giving 50% growth inhibition. Read a low GI50 as greater sensitivity of the cells.

The test system of data set [1] is Mast/stem cell growth factor receptor Kit (Homo sapiens), P10721 [UNDEFINED MUTATION]. The settings on record: 0.1 uM.
Sequence of Mast/stem cell growth factor receptor Kit (Homo sapiens), P10721 [UNDEFINED MUTATION] (P10721 whole entry, looked up, stated change not applied): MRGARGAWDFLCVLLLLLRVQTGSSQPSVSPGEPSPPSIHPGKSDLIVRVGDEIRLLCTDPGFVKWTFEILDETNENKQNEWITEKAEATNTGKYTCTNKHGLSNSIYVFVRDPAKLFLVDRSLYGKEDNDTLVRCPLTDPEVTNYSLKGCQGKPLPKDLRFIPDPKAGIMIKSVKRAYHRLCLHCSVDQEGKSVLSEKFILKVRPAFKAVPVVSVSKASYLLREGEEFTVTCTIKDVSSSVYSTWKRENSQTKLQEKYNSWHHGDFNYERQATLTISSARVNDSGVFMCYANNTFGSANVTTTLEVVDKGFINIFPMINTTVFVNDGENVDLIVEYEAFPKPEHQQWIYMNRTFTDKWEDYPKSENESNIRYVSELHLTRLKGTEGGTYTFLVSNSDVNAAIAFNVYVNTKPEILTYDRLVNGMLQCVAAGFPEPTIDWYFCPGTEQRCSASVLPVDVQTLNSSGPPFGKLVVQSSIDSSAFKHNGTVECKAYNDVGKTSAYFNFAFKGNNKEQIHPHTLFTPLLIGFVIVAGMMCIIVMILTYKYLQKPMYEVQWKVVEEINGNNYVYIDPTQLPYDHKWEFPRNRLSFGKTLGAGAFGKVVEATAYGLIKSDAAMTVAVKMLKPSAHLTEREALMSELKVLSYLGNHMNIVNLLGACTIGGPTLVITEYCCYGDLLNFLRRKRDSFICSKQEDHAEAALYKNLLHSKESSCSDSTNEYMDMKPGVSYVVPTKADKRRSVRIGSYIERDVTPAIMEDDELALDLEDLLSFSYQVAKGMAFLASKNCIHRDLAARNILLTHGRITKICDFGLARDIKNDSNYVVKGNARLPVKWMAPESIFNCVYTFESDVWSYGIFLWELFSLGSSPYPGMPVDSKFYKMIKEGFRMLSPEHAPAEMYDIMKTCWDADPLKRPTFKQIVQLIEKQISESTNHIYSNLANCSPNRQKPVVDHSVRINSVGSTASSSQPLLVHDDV
Description: Inhibition of c-KIT 560 to 578 deletion/T670I mutant in human GIST5R assessed as reduction in STAT3 phosphorylation at Y705 residue at 0.1 uM measured after 2 hrs by Western blot analysis
For data set [2] the test system is unchanged. The following applies: GISTT1, 0.1 uM.
Description: Inhibition of c-KIT 560 to 578 deletion/T670I mutant in human GISTT1 cells assessed as reduction in c-KIT autophosphorylation at Y823 residue at 0.1 uM measured after 2 hrs by Western blot analysis
Data set [3] has the same test system. The settings on record: GISTT1, 0.1 uM. The source holds these as a separate data set.
Description: Inhibition of c-KIT 560 to 578 deletion mutant in human GISTT1 cells assessed as reduction in AKT phosphorylation at T308 residue at 0.1 uM measured after 2 hrs by Western blot analysis
For data set [4] the test system is unchanged. The settings on record: GISTT1, 0.1 uM. The source holds these as a separate data set.
Description: Inhibition of c-KIT 560 to 578 deletion mutant in human GISTT1 cells assessed as reduction in AKT phosphorylation at S473 residue at 0.1 uM measured after 2 hrs by Western blot analysis
Data set [5] shares this test system. The following applies: GISTT1, 0.1 uM. This is another data set of the same source.
Description: Inhibition of c-KIT 560 to 578 deletion/T670I mutant in human GISTT1 cells assessed as reduction in pS6 phosphorylation at S235 residue at 0.1 uM measured after 2 hrs by Western blot analysis
The test system is the same in data set [6]. The settings on record: GISTT1, 0.1 uM. This is another data set of the same source.
Description: Inhibition of c-KIT 560 to 578 deletion/T670I mutant in human GISTT1 cells assessed as reduction in ERK phosphorylation at T204 residue at 0.1 uM measured after 2 hrs by Western blot analysis
The test system is the same in data set [7]. The following applies: 0.1 uM. This is another data set of the same source.
Description: Inhibition of c-KIT 560 to 578 deletion/T670I mutant in human GIST5R assessed as reduction in AKT phosphorylation at S473 residue at 0.1 uM measured after 2 hrs by Western blot analysis
Data set [8] shares this test system. The following applies: 0.1 uM. This is another data set of the same source.
Description: Inhibition of c-KIT 560 to 578 deletion/T670I mutant in human GIST5R assessed as reduction in ERK phosphorylation at T204 residue at 0.1 uM measured after 2 hrs by Western blot analysis
Data set [9] addresses T1, Platelet-derived growth factor receptor alpha (Homo sapiens, UniProt P16234). The data set can be described thus: Binding affinity to wild-type human partial length PDGFRA (V575 to D1002 residues) expressed in mammalian expression system assessed as residual binding level at 1 uM by Kinomescan method relative to control.
Data set [10] has as its target Mast/stem cell growth factor receptor Kit (Homo sapiens, UniProt P10721, T670I/V559D). The data set can be described thus: Inhibition of human N-terminal GST-tagged KIT V559D/T670I double mutant (544 to end residues) expressed in baculovirus infected Sf9 insect cells by Lanthascreen Eu-binding method. (In general: In TR-FRET formats the signal depends on donor and acceptor labels being close together.)

Data set [11] has as its target T1, Platelet-derived growth factor receptor alpha. Nature of the data set: Inhibition of recombinant human GST-tagged PDGFRA cytoplasmic domain (550 to 1089 residues) expressed in baculovirus expression system by Z-lyte assay.
In data set [12] the target is T2, Mast/stem cell growth factor receptor Kit (Homo sapiens, UniProt P10721, 560-578DEL/T670I). It counts as cell-based, GISTT1.
T2 sequence (P10721 whole entry, looked up, stated change not applied): as above
Data set [13] concerns the target T2, Mast/stem cell growth factor receptor Kit. It counts as cell-based.
Data set [14] has as its target T3, Mast/stem cell growth factor receptor Kit (Homo sapiens, UniProt P10721, 560-578DEL). The format is cell-based, GISTT1.
The target in data set [15] is T3, Mast/stem cell growth factor receptor Kit. It counts as cell-based, GISTT1. This is another data set of the same source.
The target in data set [16] is T2, Mast/stem cell growth factor receptor Kit. The format is cell-based, GISTT1. This is another data set of the same source.
For data set [17] the target is unchanged.
Data set [18] concerns the target RAC-alpha serine/threonine-protein kinase (Homo sapiens) (UniProt P31749). The format is cell-based.
In data set [19] the test system is GISTT1. The format is functional, cell-based. The settings on record: Homo sapiens.
Data set [20] is filed under the species Homo sapiens. It counts as functional, cell-based.
A short description of data set [21]: Tmax in Sprague-Dawley rat at 1 mg/kg, iv by LC-MS/MS analysis. The format is ADME, organism-based. The settings on record: in vivo.
The nature of data set [22]: Half life in mouse at 10 mg/kg, po by LC-MS/MS analysis. The format is ADME, organism-based. The following applies: in vivo.
The nature of data set [23]: Cmax in Beagle dog at 1 mg/kg, iv by LC-MS/MS analysis. Also on record: dose 1 mg/kg, route intravenous. The following applies: in vivo. It counts as ADME, organism-based, Canis lupus familiaris.
Data set [24] concerns Mus musculus. The format is functional, organism-based. The settings on record: BALB/c, 80 mg/kg, TDE = time-dependent effect.
The subject of data set [25] is Mus musculus. The format is functional, organism-based. The settings on record: BALB/c, 80 mg/kg, TDE = time-dependent effect. This is another data set of the same source.
Data set [26] concerns Mus musculus. The format is functional, organism-based. The settings on record: BALB/c, 80 mg/kg.
Data set [27] in a line: Antitumor activity against mouse BAF3(transformed) cells harboring c-KIT T670I mutant implanted in BALB/c nu mouse assessed as tumor growth inhibition at 100 mg/kg/day, po administered via gavage for 11 days relative to control. The following applies: 264 h, read-out: TGI. The format is functional.
Data set [28] can be described thus: Antitumor activity against mouse BAF3(transformed) cells harboring c-KIT D820G mutant implanted in BALB/c nu mouse assessed as tumor growth inhibition at 40 mg/kg/day, po administered via gavage for 9 days relative to control. The format is functional. The settings on record: 216 h, read-out: TGI.
Data set [29] relates to GISTT1. It counts as functional, cell-based. The settings on record: Homo sapiens. This is another data set of the same source.
A short description of data set [30]: Toxicity in BALB/c nu mouse implanted with mouse BAF3(transformed) cells harboring c-KIT D820G mutant assessed as change in body weight at 40 to 80 mg/kg/day, po administered via gavage for 9 days measured daily during compound dosing. It counts as organism-based. The following applies: in vivo, 216 h.
For data set [31], the system named is Mast/stem cell growth factor receptor Kit (Homo sapiens), P10721 [V560D]. The settings on record: Mus musculus.
Sequence of Mast/stem cell growth factor receptor Kit (Homo sapiens), P10721 [V560D] (P10721 whole entry V560D): as the sequence (P10721 whole entry, looked up, stated change not applied) above, with V560D counted along it
The test system of data set [32] is Mast/stem cell growth factor receptor Kit (Homo sapiens), P10721 [Y823D]. The following applies: Mus musculus.
Sequence of Mast/stem cell growth factor receptor Kit (Homo sapiens), P10721 [Y823D] (P10721 whole entry Y823D): as the sequence (P10721 whole entry, looked up, stated change not applied) above, with Y823D counted along it
Description: Inhibition of c-KIT Y823D mutant in mouse BAF3(transformed) cells assessed as growth inhibition after 72 hrs by CCK8 assay
The test system of data set [33] is Mast/stem cell growth factor receptor Kit (Homo sapiens), P10721 [UNDEFINED MUTATION]. The following applies: GISTT1.
Description: Inhibition of c-KIT 560 to 578 deletion mutant in human GISTT1 cells assessed as growth inhibition after 72 hrs by CCK8 assay
Data set [34] deals with Mast/stem cell growth factor receptor Kit (Homo sapiens), P10721 [K642E].
Sequence of Mast/stem cell growth factor receptor Kit (Homo sapiens), P10721 [K642E] (P10721 whole entry K642E): as the sequence (P10721 whole entry, looked up, stated change not applied) above, with K642E counted along it

Calls of active or inactive are those of the source. No cut-off for these calls is given here. Where only a bound is given, the exact number is not on record here.

T3 sequence (P10721 whole entry, looked up, stated change not applied): as the sequence (P10721 whole entry, looked up, stated change not applied) above
T1 sequence (P16234 whole entry, the tested form may be a part): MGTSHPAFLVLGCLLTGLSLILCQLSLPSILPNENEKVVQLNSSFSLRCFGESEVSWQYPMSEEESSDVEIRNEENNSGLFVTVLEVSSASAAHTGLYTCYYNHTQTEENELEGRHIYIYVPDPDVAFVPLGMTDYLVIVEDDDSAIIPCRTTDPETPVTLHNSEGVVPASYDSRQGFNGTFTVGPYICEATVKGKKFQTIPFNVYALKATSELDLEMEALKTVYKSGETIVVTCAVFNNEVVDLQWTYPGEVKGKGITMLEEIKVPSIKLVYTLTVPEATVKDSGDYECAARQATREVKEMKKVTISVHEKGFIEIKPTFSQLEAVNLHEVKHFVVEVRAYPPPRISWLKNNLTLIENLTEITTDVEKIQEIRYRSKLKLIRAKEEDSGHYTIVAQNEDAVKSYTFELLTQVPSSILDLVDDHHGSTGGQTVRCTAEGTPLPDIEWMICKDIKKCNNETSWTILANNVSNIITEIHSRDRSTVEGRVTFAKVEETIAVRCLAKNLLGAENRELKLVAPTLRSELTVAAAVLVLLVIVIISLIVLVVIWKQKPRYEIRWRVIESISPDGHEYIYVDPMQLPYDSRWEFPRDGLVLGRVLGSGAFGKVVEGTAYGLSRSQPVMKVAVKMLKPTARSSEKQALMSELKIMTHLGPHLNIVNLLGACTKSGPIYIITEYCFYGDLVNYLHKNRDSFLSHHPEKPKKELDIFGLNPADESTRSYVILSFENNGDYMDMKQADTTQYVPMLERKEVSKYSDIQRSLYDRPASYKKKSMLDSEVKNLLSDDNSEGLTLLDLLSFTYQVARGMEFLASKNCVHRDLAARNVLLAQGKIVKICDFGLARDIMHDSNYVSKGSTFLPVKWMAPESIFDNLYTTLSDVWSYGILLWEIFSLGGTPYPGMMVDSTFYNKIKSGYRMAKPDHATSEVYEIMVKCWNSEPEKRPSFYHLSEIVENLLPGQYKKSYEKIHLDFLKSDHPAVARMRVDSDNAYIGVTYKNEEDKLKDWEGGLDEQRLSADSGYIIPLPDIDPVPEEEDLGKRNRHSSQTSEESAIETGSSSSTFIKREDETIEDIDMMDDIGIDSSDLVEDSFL
Sequence of RAC-alpha serine/threonine-protein kinase (Homo sapiens) (P31749 whole entry): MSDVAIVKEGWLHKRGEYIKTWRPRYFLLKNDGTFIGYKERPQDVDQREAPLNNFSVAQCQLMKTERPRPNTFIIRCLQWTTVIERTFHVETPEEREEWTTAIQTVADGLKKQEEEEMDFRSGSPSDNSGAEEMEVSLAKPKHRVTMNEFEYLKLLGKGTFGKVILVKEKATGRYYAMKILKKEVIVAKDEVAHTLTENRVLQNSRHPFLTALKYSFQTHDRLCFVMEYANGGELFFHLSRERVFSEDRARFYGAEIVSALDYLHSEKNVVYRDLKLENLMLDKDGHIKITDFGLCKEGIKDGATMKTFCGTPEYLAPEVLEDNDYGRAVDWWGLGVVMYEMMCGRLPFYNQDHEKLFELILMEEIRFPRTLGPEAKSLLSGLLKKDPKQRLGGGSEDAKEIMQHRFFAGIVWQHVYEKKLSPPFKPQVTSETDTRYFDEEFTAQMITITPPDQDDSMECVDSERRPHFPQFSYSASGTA
Sequence of Mast/stem cell growth factor receptor Kit (Homo sapiens, UniProt P10721, T670I/V559D) (P10721 26-976 V559D/T670I limits assumed): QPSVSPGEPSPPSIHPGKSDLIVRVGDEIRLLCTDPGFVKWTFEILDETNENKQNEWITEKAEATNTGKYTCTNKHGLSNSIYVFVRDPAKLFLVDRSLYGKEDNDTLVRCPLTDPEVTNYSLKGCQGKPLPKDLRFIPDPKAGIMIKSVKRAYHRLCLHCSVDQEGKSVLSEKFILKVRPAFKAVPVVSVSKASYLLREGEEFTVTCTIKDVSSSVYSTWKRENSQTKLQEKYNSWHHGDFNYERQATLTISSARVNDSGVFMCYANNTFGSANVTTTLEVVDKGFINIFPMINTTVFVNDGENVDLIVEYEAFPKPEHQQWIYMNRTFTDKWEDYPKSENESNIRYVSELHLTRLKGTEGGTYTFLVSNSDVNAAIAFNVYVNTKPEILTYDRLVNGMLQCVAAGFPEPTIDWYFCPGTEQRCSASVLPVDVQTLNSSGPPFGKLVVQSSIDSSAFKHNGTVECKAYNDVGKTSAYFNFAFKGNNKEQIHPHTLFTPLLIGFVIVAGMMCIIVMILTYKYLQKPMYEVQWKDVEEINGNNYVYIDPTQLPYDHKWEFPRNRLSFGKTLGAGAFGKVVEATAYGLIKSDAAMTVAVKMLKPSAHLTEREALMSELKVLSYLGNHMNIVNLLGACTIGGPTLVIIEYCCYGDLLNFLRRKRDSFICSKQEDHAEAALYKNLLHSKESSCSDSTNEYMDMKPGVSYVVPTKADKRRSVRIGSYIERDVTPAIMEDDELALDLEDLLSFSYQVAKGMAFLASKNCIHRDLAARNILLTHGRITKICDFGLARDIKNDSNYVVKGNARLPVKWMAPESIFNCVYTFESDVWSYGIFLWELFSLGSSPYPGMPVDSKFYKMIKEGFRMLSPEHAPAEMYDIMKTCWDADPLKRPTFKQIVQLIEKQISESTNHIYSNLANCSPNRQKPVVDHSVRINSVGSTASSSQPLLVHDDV

Turning to `CCN(CC)CCNC(=O)c1c(C)[nH]c(/C=C2\C(=O)Nc3ccc(F)cc32)c1C` [SUNITINIB], the inhibition entry in [1], in data set [2], in data set [3], in data set [4], in [5] and in data set [6] was “Active” each time. The inhibition entry in [7] and in data set [8] was “Active” each time.
On to `COc1cc2nccc(Oc3ccc(NC(=O)Cc4ccc(Cl)c(C(F)(F)F)c4)cc3)c2cc1OC`, for which the Activity in data set [9] was less than 1%; in [19], “Dose-dependent effect”; in data set [20], “Dose-dependent effect”; in data set [30], “Non-Toxic”. Moreover, the values for the IC50 in data set [10] and in data set [11] were 8 nM and 25 nM, respectively. Moreover, the EC50 in data set [12], in data set [13], in [14], in [15], in [16] and in data set [17] was less than 100 nM in each case. For the same compound, in data set [18], the inhibition entry was “Active”. For the same compound, the Tmax in data set [21] came to 0 h. The compound further had a half-life in data set [22] of 4.5 h. For the same compound, in data set [23], the concentration peaked (Cmax) at 1110 ng/mL. Also, the inhibition entry in data set [24] and in data set [25] was “Tde” each time. Further, the inhibition result in data set [26] was “inactive”. The inhibition in vivo at 100 mg/kg/day in data set [27] was 100%. The inhibition in vivo at 40 mg/kg/day in data set [28] is 88.9%. Besides, in [29], the TGI result was “Dose-dependent effect”. The GI50 in data set [31] amounted to 4 nM; in data set [32], 35 nM; in data set [33] it was 6 nM; in data set [34], 13 nM.

The values above are taken from ChEMBL document CHEMBL4359837, “Discovery of 2-(4-Chloro-3-(trifluoromethyl)phenyl)-N-(4-((6,7-dimethoxyquinolin-4-yl)oxy)phenyl)acetamide (CHMFL-KIT-64) as a Novel Orally Available Potent Inhibitor against Broad-Spectrum Mutants of c-KIT Kinase for Gastrointestinal Stromal Tumors” (J Med Chem, 2019).
